Experiments:
[1] = system: indigenous microorganisms; assay: Reduction of indigenous microorganisms on Romaine, Aerobic Plate Counts, commercial scale test (Example 5); type: cell-based; settings: 73-84 ppm peroxyacetic acid, no lactic acid
Procedure: (§1) Example 5. These experiments evaluated the consumption or depletion of peroxyacetic acid when used to wash produce.
(§2) Treatments: chlorinated water, peroxyacetic acid wash water, and FE sanitizer wash water
(§3) Temperature: 38 to 40° F.
(§4) Produce: 1.5″×2″ diced Romaine lettuce
A. Determination of the amount of Romaine Lettuce that could deplete 600 gallons of peroxyacetic acid wash water. • 1. Perform full sanitization on the Pilot Line System. • 2. Fill the 2nd flume tank, 2nd reservoir, and 2nd filtering tank with tap water. • 3. Recycle the water through the system until the water in the system is being cooled down to 40° F. • 4. Calibrate the Prominent System and use the Prominent System to monitor the concentration of PAA in the wash water. • 5. Add the PAA to the 2nd filtering tank until the target processing limit is reached. • 6. Dice the Romaine Lettuce via the translicer. • 7. Collect the 2″×2″ diced Romaine in totes. • 8. Record the weight of each tote prior to transferring it to the 2nd flume. • 9. Collect three untreated bags of Romaine Lettuce from each bin (1 top, 1 middle, and 1 bottom). • 10. Collect three treated bags of Romaine Lettuce at the end of F2 (1 beginning, 1 middle, and 1 end of the bin). • 11. Place white totes at the bottom of the locations with water spill. Return the spilt water back into the flume tank as needed. • 12. […]

[2] = 40° C.; cited from earlier work
[3] = Depletion of sanitizer wash water by diced Romaine, commercial scale test (Example 5); type: physicochemical; settings: 38 to 40 F; for PA (ppm) / Peroxide (ppm): 600 gallons, LA 0 ppm
Procedure: as §1, §2, §3, §4
A. Determination of the amount of Romaine Lettuce that could deplete 600 gallons of peroxyacetic acid wash water. • 1. Perform full sanitization on the Pilot Line System. • 2. Fill the 2nd flume tank, 2nd reservoir, and 2nd filtering tank with tap water. • 3. Recycle the water through the system until the water in the system is being cooled down to 40° F. • 4. Calibrate the Prominent System and use the Prominent System to monitor the concentration of PAA in the wash water. • 5. Add the PAA to the 2nd filtering tank until the target processing limit is reached. • 6. Dice the Romaine Lettuce via the translicer. • 7. Collect the 2″×2″ diced Romaine in totes. • 8. Record the weight of each tote prior to transferring it to the 2nd flume. • 9. Collect three untreated bags of Romaine Lettuce from each bin (1 top, 1 middle, and 1 bottom). • 10. Collect three treated bags of Romaine Lettuce at the end of F2 (1 beginning, 1 middle, and 1 end of the bin). • 11. Place white totes at the bottom of the locations with water spill. Return the spilt water back into the flume tank as needed. • 12. Place white totes at the bottom outlets of the centrifuge to collect liquid that would be spin off from the leaves. Return the collected water back into the flume tank as needed. • 13. Repeat Steps ‘e’ to ‘k’ for the rest of the bins till the FE concentrations fall below the lowest processing limits. • 14. Enumerate the microbial population (APC and Yeast and mold) on the collected samples. B. Determination of the amount of Romaine Lettuce that could deplete 600 gallons of FE wash water • 1. Perform full sanitization on the Pilot Line System. • 2. Fill the 1st flume tank, 2nd flume tank, 1st reservoir, 2nd reservoir, 1^stfiltering tank, and 2nd filtering tank with tap water. • 3. Recycle the water through the system until the water in the system is being cooled down to 40° F. • 4. Switch on the by-passes for the 1st and 2nd flume tank systems so that water would not be going through the filtering systems but only recycling from the flume tank to its associate reservoir continuously. • 5. Add the chemical ingredients to both tank until the target processing limit is reached. • 6. Verify the concentration of FE by the probe of the Prominent Monitoring System at the 1st flume tank (F1), 1st Reservoir (R1), 2nd Flume tank (F2), and the 2nd Reservoir (R2). • 7. Collect water samples from F1 and F2. • 8. Assemble the Romaine Lettuce Bins next to the dumpster. • 9. Transfer whole Romaine Lettuce leaves from the bin to the conveyor. • 10. Ensure that the lid above the F1 is closed. Turn the “ON/OFF” switch of the translicer to “ON”. • 11. Turn the conveyor for transferring leaves into the translicer to “ON”. • 12. Ensure that the chopped Romaine are delivered evenly into the flume tank without aggregation and clumping. • 13. Collect three untreated bags of Romaine Lettuce from each bin (1 top, 1 middle, and 1 bottom). • 14. Collect three treated bags of Romaine Lettuce at the end of F2 (1 beginning, 1 middle, and 1 end of the bin). • 15. Verify the pH, temperature, and the concentration of FE at the 1st flume tank (F1), 1st Reservoir (R1), 2nd Flume tank (F2), and the 2nd Reservoir (R2) before and after processing a bin. • 16. Place white totes at the bottom of the locations with water spill. Return the spilt water back into the flume tank as needed. • 17. Place white totes at the bottom outlets of the centrifuge to collect liquid that would be spin off from the leaves. Return the collected water back into the flume tank as needed. • 18. Repeat Steps ‘e’ to ‘o’ for the rest of the bins till the FE concentrations fall below the lowest processing limits. • 19. […]

[4] = 600 gallons wash water, whole run
[5] = cumulative diced Romaine added 0.0 lb
[6] = cumulative diced Romaine added 55.2 lb
[7] = cumulative diced Romaine added 114.9 lb
[8] = cumulative diced Romaine added 157.2 lb
[9] = cumulative diced Romaine added 207.7 lb
[10] = cumulative diced Romaine added 272.9 lb
[11] = cumulative diced Romaine added 325.8 lb
[12] = cumulative diced Romaine added 371.3 lb
[13] = cumulative diced Romaine added 424.7 lb
[14] = cumulative diced Romaine added 502.6 lb
[15] = cumulative diced Romaine added 565.0 lb
[16] = cumulative diced Romaine added 629.0 lb
[17] = cumulative diced Romaine added 697.1 lb
[18] = cumulative diced Romaine added 762.7 lb
[19] = cumulative diced Romaine added 826.6 lb
[20] = cumulative diced Romaine added 896.2 lb
[21] = cumulative diced Romaine added 949.9 lb

For `CC(=O)OO` [Peroxyacetic acid, peroxyacetic acid], the “Log Reduction, Aerobic Plate Counts” value [1] is given as 0.7 Log cfu/g, the “Aerobic Plate Counts after wash” value ([1]; untreated 3.4) is given as 2.7 Log cfu/g and the “apparent equilibrium constant, Kap” value [2] is given as “about 2.21”. For the same compound, the “Amount of PA consumed” value [3, 4] was 11.7 ppm, the “Pounds of PA consumed” value [3, 4] was 0.01208 lb and the “Depletion of PA” value ([3]; 600 gallons wash water, no lactic acid) was 0.000013 lb of PA per lb of Romaine. The “PA (ppm)” value [3, 5] was 84.8 ppm, the “Peroxide (ppm)” value [3, 5] was 7.5 ppm and the “PA (ppm)” value [3, 6] was 83.3 ppm. The “Peroxide (ppm)” value [3, 6] was 7.4 ppm, the “PA (ppm)” value [3, 7] was 82.7 ppm and the “Peroxide (ppm)” value [3, 7] was 7.4 ppm. The “PA (ppm)” value [3, 8] was 82.4 ppm, the “Peroxide (ppm)” value [3, 8] was 7.4 ppm and the “PA (ppm)” value [3, 9] was 82.0 ppm. The “Peroxide (ppm)” value [3, 9] was 7.4 ppm, the “PA (ppm)” value [3, 10] was 81.4 ppm and the “Peroxide (ppm)” value [3, 10] was 7.3 ppm. For the same compound, the “PA (ppm)” value [3, 11] was 81.0 ppm, the “Peroxide (ppm)” value [3, 11] was 7.3 ppm and the “PA (ppm)” value [3, 12] was 80.5 ppm. For the same compound, the “Peroxide (ppm)” value [3, 12] was 7.1 ppm, the “PA (ppm)” value [3, 13] was 79.6 ppm and the “Peroxide (ppm)” value [3, 13] was 6.9 ppm. The “PA (ppm)” value [3, 14] was 78.7 ppm, the “Peroxide (ppm)” value [3, 14] was 6.9 ppm and the “PA (ppm)” value [3, 15] was 78.4 ppm. The “Peroxide (ppm)” value [3, 15] was 6.9 ppm, the “PA (ppm)” value [3, 16] was 77.7 ppm and the “Peroxide (ppm)” value [3, 16] was 6.4 ppm. For the same compound, the “PA (ppm)” value [3, 17] was 76.1 ppm, the “Peroxide (ppm)” value [3, 17] was 6.4 ppm and the “PA (ppm)” value [3, 18] was 75.4 ppm. The “Peroxide (ppm)” value [3, 18] was 6.1 ppm, the “PA (ppm)” value [3, 19] was 74.7 ppm and the “Peroxide (ppm)” value [3, 19] was 6.0 ppm. The “PA (ppm)” value [3, 20] was 73.7 ppm, the “Peroxide (ppm)” value [3, 20] was 6.0 ppm and the “PA (ppm)” value [3, 21] was 73.1 ppm. For the same compound, the “Peroxide (ppm)” value [3, 21] was 6.0 ppm.

Source: US20130065959A1, “SANITIZING MEAT WITH PERACID AND 2-HYDROXY ORGANIC ACID COMPOSITIONS” (Fresh Express Incorporated, priority 2009, published 2013)
